Activity calls are given as the source filed them. The calls are words filed in the database; no cut-off is given here.
Tests used:
[1] = target: Ribosomal protein S6 kinase alpha-2 (Homo sapiens) (UniProt Q15349); experiment: activity of Rsk3(h) at 1.0 µM in the Eurofins Kinase panel; settings: Compound concentration 1.0 uM
[2] = target: Serine/threonine-protein kinase PAK 2 (Homo sapiens) (UniProt Q13177); experiment: activity of PAK2(h) at 1.0 µM in the Eurofins Kinase panel; settings: Compound concentration 1.0 uM
[3] = target: 3-phosphoinositide-dependent protein kinase 1 (Homo sapiens) (UniProt O15530); experiment: activity of PDK1(h) at 1.0 µM in the Eurofins Kinase panel; settings: Compound concentration 1.0 uM
[4] = target: Receptor tyrosine-protein kinase erbB-4 (Homo sapiens) (UniProt Q15303); experiment: activity of ErbB4(h) at 1.0 µM in the Eurofins Kinase panel; settings: Compound concentration 1.0 uM
[5] = target: MAP/microtubule affinity-regulating kinase 4 (Homo sapiens) (UniProt Q96L34); experiment: activity of MARK4(h) at 1.0 µM in the Eurofins Kinase panel; settings: Compound concentration 1.0 uM
[6] = target: Rhodopsin kinase GRK1 (Homo sapiens) (UniProt Q15835); experiment: activity of GRK1(h) at 1.0 µM in the Eurofins Kinase panel; settings: Compound concentration 1.0 uM
[7] = target: Tyrosine-protein kinase HCK (Homo sapiens) (UniProt P08631); experiment: activity of Hck(h) activated at 1.0 µM in the Eurofins Kinase panel; settings: Compound concentration 1.0 uM
[8] = target: Citron Rho-interacting kinase (Homo sapiens, UniProt O14578); experiment: NanoLuc NanoBRET (CIT); settings: read-out: Kd
[9] = target: Tyrosine-protein kinase BTK (Homo sapiens) (UniProt Q06187); experiment: activity of BTK(h) at 1.0 µM in the Eurofins Kinase panel; settings: Compound concentration 1.0 uM
[10] = target: Mitogen-activated protein kinase 8 (Homo sapiens) (UniProt P45983); experiment: activity of JNK1alpha1(h) at 1.0 µM in the Eurofins Kinase panel; settings: Compound concentration 1.0 uM
[11] = target: PAS domain-containing serine/threonine-protein kinase (Homo sapiens) (UniProt Q96RG2); experiment: activity of PASK(h) at 1.0 µM in the Eurofins Kinase panel; settings: Compound concentration 1.0 uM
[12] = target: Mitogen-activated protein kinase kinase kinase 9 (Homo sapiens) (UniProt P80192); experiment: activity of MLK1(h) at 1.0 µM in the Eurofins Kinase panel; settings: Compound concentration 1.0 uM
[13] = target: Serine/threonine-protein kinase OSR1 (Homo sapiens) (UniProt O95747); experiment: activity of OSR1(h) at 1.0 µM in the Eurofins Kinase panel; settings: Compound concentration 1.0 uM
[14] = target: Ribosomal protein S6 kinase beta-1 (Homo sapiens) (UniProt P23443); experiment: activity of p70S6K(h) at 1.0 µM in the Eurofins Kinase panel; settings: Compound concentration 1.0 uM
[15] = target: Dual specificity tyrosine-phosphorylation-regulated kinase 1B (Homo sapiens) (UniProt Q9Y463); experiment: activity of DYRK1B(h) at 1.0 µM in the Eurofins Kinase panel; settings: Compound concentration 1.0 uM
[16] = target: Mitogen-activated protein kinase 12 (Homo sapiens) (UniProt P53778); experiment: activity of SAPK3(h) at 1.0 µM in the Eurofins Kinase panel; settings: Compound concentration 1.0 uM
[17] = target: PI3-kinase p110-delta/p85-alpha (Homo sapiens) (UniProt P27986+O00329); experiment: activity of PI3 Kinase (p110delta/p85alpha)(h) at 1.0 µM in the Eurofins Kinase panel; assay type: protein-complex assay; settings: Compound concentration 1.0 uM
[18] = target: Serine/threonine-protein kinase Nek3 (Homo sapiens) (UniProt P51956); experiment: activity of NEK3(h) at 1.0 µM in the Eurofins Kinase panel; settings: Compound concentration 1.0 uM
[19] = target: Serine/threonine-protein kinase SIK2 (Homo sapiens) (UniProt Q9H0K1); experiment: activity of SIK2(h) at 1.0 µM in the Eurofins Kinase panel; settings: Compound concentration 1.0 uM
[20] = target: Ephrin type-B receptor 3 (Homo sapiens) (UniProt P54753); experiment: activity of EphB3(h) at 1.0 µM in the Eurofins Kinase panel; settings: Compound concentration 1.0 uM
[21] = target: Phosphorylase b kinase gamma catalytic chain, skeletal muscle/heart isoform (Homo sapiens) (UniProt Q16816); experiment: activity of PhKgamma1(h) at 1.0 µM in the Eurofins Kinase panel; settings: Compound concentration 1.0 uM
[22] = target: Cyclin-dependent kinase 14/Cyclin-Y (Homo sapiens) (UniProt O94921+Q8ND76); experiment: activity of CDK14/cyclinY(h) at 1.0 µM in the Eurofins Kinase panel; assay type: protein-complex assay; settings: Compound concentration 1.0 uM
[23] = target: Protein kinase C beta type (Homo sapiens) (UniProt P05771); experiment: activity of PKCbetaII(h) at 1.0 µM in the Eurofins Kinase panel; settings: Compound concentration 1.0 uM
[24] = target: CDK18/Cyclin Y (Homo sapiens) (UniProt Q07002+Q8ND76); experiment: activity of CDK18/cyclinY(h) at 1.0 µM in the Eurofins Kinase panel; assay type: protein-complex assay; settings: Compound concentration 1.0 uM
[25] = target: Serine/threonine-protein kinase MRCK alpha (Homo sapiens) (UniProt Q5VT25); experiment: activity of MRCKalpha(h) at 1.0 µM in the Eurofins Kinase panel; settings: Compound concentration 1.0 uM
[26] = target: Serine/threonine-protein kinase WNK3 (Homo sapiens) (UniProt Q9BYP7); experiment: activity of WNK3(h) at 1.0 µM in the Eurofins Kinase panel; settings: Compound concentration 1.0 uM
[27] = target: Serine/threonine-protein kinase haspin (Homo sapiens) (UniProt Q8TF76); experiment: activity of Haspin(h) at 1.0 µM in the Eurofins Kinase panel; settings: Compound concentration 1.0 uM
[28] = target: Mitogen-activated protein kinase kinase kinase 7 (Homo sapiens) (UniProt O43318); experiment: activity of TAK1(h) at 1.0 µM in the Eurofins Kinase panel; settings: Compound concentration 1.0 uM
[29] = target: Epidermal growth factor receptor (Homo sapiens) (UniProt P00533); experiment: activity of EGFR(h) at 1.0 µM in the Eurofins Kinase panel; settings: Compound concentration 1.0 uM
[30] = target: Receptor tyrosine-protein kinase erbB-2 (Homo sapiens) (UniProt P04626); experiment: activity of ErbB2(h) at 1.0 µM in the Eurofins Kinase panel; settings: Compound concentration 1.0 uM
[31] = target: cGMP-dependent protein kinase 1 (Homo sapiens) (UniProt Q13976); experiment: activity of PKG1alpha(h) at 1.0 µM in the Eurofins Kinase panel; settings: Compound concentration 1.0 uM
[32] = target: Receptor-interacting serine/threonine-protein kinase 1 (Homo sapiens) (UniProt Q13546); experiment: activity of RIPK1(h) at 1.0 µM in the Eurofins Kinase panel; settings: Compound concentration 1.0 uM
[33] = target: Serine/threonine-protein kinase Nek11 (Homo sapiens) (UniProt Q8NG66); experiment: activity of NEK11(h) at 1.0 µM in the Eurofins Kinase panel; settings: Compound concentration 1.0 uM
[34] = target: Dual specificity mitogen-activated protein kinase kinase 1 (Homo sapiens) (UniProt Q02750); experiment: activity of MEK1(h) at 1.0 µM in the Eurofins Kinase panel; settings: Compound concentration 1.0 uM
[35] = target: Homeodomain-interacting protein kinase 4 (Homo sapiens, UniProt Q8NE63); experiment: Promega NanoBRET (HIPK4)
[36] = target: TRAF2 and NCK-interacting protein kinase (Homo sapiens) (UniProt Q9UKE5); experiment: activity of TNIK(h) at 1.0 µM in the Eurofins Kinase panel; settings: Compound concentration 1.0 uM
[37] = target: Mitogen-activated protein kinase 9 (Homo sapiens) (UniProt P45984); experiment: activity of JNK2alpha2(h) at 1.0 µM in the Eurofins Kinase panel; settings: Compound concentration 1.0 uM
[38] = target: CDK12/Cyclin K (Homo sapiens) (UniProt O75909+Q9NYV4); experiment: activity of CDK12/cyclinK(h) at 1.0 µM in the Eurofins Kinase panel; assay type: protein-complex assay; settings: Compound concentration 1.0 uM
Aurora kinase B = Aurora kinase B (Homo sapiens, UniProt Q96GD4); experiment: Promega NanoBRET (AURKB)
Sequence of Aurora kinase B (Q96GD4 whole entry): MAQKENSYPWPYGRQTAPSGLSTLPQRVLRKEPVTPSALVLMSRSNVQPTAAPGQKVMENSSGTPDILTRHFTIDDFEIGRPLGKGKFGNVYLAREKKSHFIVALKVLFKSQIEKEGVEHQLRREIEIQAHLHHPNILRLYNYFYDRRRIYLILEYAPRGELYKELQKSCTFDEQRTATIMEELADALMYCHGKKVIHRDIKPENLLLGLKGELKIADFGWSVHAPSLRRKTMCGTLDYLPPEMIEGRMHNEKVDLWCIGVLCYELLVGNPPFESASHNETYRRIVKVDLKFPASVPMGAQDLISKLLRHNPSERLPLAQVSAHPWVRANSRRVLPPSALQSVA

Sequence of Receptor tyrosine-protein kinase erbB-4 (Homo sapiens) (Q15303 whole entry): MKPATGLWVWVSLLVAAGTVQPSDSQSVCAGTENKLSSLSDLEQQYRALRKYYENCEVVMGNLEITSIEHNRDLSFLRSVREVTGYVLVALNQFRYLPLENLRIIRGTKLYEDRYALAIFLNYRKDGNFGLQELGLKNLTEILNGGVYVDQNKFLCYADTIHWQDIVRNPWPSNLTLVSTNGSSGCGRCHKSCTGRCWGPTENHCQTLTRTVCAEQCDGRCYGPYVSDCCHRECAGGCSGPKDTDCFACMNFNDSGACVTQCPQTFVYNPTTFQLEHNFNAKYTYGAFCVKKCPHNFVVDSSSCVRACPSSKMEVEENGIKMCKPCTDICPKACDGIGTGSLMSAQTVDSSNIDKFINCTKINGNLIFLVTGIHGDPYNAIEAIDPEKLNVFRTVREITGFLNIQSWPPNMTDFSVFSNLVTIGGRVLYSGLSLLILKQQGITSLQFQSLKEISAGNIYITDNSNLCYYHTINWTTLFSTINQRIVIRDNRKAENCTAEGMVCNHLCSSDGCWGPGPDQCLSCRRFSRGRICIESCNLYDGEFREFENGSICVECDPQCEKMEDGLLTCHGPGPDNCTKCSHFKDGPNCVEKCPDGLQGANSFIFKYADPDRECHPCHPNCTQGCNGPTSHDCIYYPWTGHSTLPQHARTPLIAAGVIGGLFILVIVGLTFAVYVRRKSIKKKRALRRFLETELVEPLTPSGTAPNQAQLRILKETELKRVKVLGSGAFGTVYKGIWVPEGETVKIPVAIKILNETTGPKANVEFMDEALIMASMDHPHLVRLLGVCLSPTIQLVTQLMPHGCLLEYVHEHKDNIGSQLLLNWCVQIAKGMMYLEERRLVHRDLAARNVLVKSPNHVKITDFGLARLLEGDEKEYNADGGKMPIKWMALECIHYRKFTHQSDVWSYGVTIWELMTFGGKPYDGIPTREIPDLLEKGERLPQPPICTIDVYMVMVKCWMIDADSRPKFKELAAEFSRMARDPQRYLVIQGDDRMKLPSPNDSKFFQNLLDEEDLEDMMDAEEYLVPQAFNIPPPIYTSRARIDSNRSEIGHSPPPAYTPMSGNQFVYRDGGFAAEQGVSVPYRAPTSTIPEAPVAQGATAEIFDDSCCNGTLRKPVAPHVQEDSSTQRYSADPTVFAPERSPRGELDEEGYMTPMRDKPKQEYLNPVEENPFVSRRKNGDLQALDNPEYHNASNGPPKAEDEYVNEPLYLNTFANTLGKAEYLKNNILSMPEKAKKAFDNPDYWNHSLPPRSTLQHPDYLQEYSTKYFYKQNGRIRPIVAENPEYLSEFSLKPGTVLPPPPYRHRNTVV
Sequence of Dual specificity mitogen-activated protein kinase kinase 1 (Homo sapiens) (Q02750 whole entry): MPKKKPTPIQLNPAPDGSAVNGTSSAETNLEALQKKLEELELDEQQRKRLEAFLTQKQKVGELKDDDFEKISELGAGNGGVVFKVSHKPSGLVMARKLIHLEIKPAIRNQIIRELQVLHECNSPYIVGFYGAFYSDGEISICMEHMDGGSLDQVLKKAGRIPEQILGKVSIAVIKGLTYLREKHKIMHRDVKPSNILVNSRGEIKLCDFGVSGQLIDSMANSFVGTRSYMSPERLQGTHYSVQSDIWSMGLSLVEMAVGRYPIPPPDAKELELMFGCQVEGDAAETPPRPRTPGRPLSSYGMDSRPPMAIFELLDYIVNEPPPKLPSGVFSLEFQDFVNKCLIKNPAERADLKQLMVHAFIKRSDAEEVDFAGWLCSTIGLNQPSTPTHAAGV
Sequence of Mitogen-activated protein kinase 9 (Homo sapiens) (P45984 whole entry, looked up): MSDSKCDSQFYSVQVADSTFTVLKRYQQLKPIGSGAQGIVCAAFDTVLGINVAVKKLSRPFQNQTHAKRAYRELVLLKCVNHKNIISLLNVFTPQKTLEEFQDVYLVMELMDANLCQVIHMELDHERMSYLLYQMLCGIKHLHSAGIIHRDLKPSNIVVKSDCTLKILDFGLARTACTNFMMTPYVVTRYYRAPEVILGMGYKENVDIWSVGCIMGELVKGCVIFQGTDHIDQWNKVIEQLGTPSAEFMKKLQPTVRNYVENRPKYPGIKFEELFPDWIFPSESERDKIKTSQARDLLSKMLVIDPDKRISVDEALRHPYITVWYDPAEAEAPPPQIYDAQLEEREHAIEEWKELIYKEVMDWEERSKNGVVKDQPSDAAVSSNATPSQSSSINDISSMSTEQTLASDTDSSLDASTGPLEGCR
Sequence of Receptor-interacting serine/threonine-protein kinase 1 (Homo sapiens) (Q13546 whole entry): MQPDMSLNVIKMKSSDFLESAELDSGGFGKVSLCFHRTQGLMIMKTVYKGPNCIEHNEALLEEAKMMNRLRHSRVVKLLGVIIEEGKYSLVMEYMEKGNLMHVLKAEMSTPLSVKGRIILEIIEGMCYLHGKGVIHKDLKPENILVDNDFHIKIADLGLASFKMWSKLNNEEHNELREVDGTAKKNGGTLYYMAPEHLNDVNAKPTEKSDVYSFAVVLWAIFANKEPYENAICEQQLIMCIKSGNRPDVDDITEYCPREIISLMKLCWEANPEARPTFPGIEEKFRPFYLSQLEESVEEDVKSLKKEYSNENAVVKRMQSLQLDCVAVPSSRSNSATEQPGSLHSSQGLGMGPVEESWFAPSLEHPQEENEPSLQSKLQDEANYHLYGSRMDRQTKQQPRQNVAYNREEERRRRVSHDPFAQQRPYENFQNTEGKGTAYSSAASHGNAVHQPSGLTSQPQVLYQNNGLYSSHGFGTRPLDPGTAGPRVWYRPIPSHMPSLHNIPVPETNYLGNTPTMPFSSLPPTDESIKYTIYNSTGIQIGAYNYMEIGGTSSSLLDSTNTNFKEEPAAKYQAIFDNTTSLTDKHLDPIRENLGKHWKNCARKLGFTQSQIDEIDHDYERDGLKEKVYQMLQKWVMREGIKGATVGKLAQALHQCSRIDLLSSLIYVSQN
Sequence of Homeodomain-interacting protein kinase 4 (Q8NE63 whole entry): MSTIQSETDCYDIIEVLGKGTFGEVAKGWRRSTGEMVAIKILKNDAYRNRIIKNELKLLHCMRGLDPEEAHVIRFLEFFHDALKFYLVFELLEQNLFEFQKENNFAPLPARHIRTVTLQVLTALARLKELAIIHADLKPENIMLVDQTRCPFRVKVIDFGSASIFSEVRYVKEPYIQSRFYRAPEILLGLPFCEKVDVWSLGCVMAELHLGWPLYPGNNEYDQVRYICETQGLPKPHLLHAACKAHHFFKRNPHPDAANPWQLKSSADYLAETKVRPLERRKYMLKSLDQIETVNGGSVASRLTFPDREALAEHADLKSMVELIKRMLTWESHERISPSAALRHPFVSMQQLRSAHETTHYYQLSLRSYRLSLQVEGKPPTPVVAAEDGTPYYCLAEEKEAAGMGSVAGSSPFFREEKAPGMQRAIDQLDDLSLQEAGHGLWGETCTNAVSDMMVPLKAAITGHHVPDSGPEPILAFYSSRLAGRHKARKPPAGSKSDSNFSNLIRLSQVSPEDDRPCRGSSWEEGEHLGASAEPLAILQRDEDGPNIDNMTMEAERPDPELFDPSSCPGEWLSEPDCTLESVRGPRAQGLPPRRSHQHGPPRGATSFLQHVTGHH
Sequence of Tyrosine-protein kinase HCK (Homo sapiens) (P08631 2-526 limits assumed): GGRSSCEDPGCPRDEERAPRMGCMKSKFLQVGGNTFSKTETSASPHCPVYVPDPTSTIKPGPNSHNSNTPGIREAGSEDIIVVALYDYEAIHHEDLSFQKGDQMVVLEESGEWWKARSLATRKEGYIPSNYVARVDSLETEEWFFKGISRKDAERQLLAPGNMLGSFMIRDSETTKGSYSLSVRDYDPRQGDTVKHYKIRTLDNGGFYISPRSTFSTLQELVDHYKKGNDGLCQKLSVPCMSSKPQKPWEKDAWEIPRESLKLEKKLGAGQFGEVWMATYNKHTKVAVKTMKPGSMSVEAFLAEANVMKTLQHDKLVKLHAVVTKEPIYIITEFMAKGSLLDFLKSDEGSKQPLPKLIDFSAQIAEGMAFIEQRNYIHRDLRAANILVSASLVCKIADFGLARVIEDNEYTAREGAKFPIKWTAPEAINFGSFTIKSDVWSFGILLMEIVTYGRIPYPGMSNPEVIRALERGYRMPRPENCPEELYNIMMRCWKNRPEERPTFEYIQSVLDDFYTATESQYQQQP
Sequence of Phosphorylase b kinase gamma catalytic chain, skeletal muscle/heart isoform (Homo sapiens) (Q16816 whole entry, looked up, canonical isoform): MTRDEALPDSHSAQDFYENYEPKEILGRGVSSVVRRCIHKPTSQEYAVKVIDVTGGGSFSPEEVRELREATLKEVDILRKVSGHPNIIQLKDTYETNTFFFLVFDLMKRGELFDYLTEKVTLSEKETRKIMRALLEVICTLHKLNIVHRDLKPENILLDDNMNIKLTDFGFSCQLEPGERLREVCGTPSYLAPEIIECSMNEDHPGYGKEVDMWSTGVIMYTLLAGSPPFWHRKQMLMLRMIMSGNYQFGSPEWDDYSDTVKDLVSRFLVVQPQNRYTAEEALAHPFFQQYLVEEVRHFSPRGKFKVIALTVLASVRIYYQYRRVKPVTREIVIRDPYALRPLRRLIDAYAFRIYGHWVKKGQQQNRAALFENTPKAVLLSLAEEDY

activity [1]: 112%
activity [2]: 95%
activity [3]: 105%
activity [4]: 94%
activity [5]: 92%
activity [6]: 86%
activity [7]: 111%
Kd [8]: 0.0095 µM (active)
activity [9]: 122%
activity [10]: 110%
activity [11]: 72%
activity [12]: 103%
activity [13]: 80%
activity [14]: 93%
activity [15]: 108%
activity [16]: 113%
activity [17]: 110%
activity [18]: 110%
activity [19]: 109%
activity [20]: 79%
activity [21]: 101%
activity [22]: 91%
activity [23]: 87%
activity [24]: 94%
activity [25]: 94%
activity [26]: 85%
activity [27]: 140%
activity [28]: 91%
activity [29]: 107%
activity [30]: 97%
activity [31]: 118%
activity [32]: 84%
activity [33]: 97%
activity [34]: 101%
IC50 [35]: > 10 µM (not active)
activity [36]: 93%
activity [37]: 99%
activity [38]: 89%
IC50 (Aurora kinase B): > 10 µM (not active)
SMILES: Cc1cc2c(-c3ccc(NC(=O)[C@H](N)CC(C)(C)C)cc3C)ccnc2[nH]1

Reference: ChEMBL document CHEMBL5723584 (2023)
